Source: patent publication US7507729B2, “Substituted imidazo-[1,5-a][1,2,4]triazolo[1,5-d][1,4] benzodiazepine derivatives” (priority 2005, dated 2009)
Where a name gives a salt, the structure may show the parent alone. Read-outs that look alike come from different tables or passages of the source.

How the values were obtained:
[1] = target: T1, GABA A receptor α1β3γ2 (hα1) (Homo sapiens, UniProt P14867+P18507); assay: [3H]flumazenil competition binding, membranes of HEK293 cells expressing human GABA A α1β3γ2
T1 construct: expressed in transfected cells; host or cells: HEK293, transiently transfected; membranes
Experimental: (§1) The affinity of compounds at GABA A receptor subtypes was measured by competition for [^3H]flumazenil (85 Ci/mmol; Roche) binding to HEK293 cells expressing rat (stably transfected) or human (transiently transfected) receptors of composition α1β3γ2, α2β3γ2, α3β3γ2 and α5β3γ2.
(§2) Cell pellets were suspended in Krebs-tris buffer (4.8 mM KCl, 1.2 mM CaCl2, 1.2 mM MgCl2, 120 mM NaCl, 15 mM Tris; pH 7.5; binding assay buffer), homogenized by polytron for ca. 20 sec on ice and centrifuged for 60 min at 4° C. (50000 g; Sorvall, rotor: SM24=20000 rpm). The cell pellets were resuspended in Krebs-tris buffer and homogenized by polytron for ca. 15 sec on ice. Protein was measured (Bradford method, Bio-Rad) and aliquots of 1 mL were prepared and stored at −80° C.
(§3) Radioligand binding assays were carried out in a volume of 200 μL (96-well plates) which contained 100 μL of cell membranes, [^3H]flumazenil at a concentration of 1 nM for α1, α2, α3 subunits and 0.5 nM for α5 subunits and the test compound in the range of 10^−10-3×10^−6 M.
(§4) Nonspecific binding was defined by 10^−5 M diazepam and typically represented less than 5% of the total binding. Assays were incubated to equilibrium for 1 hour at 4° C. and harvested onto GF/C uni-filters (Packard) by filtration using a Packard harvester and washing with ice-cold wash buffer (50 mM Tris; pH 7.5). After drying, filter-retained radioactivity was detected by liquid scintillation counting. Ki values were calculated using Excel-Fit (Microsoft) and are the means of two determinations.

[2] = target: T2, GABA A receptor α5β3γ2 (hα5) (Homo sapiens, UniProt P18507+P31644); assay: [3H]flumazenil competition binding, membranes of HEK293 cells expressing human GABA A α5β3γ2
T2 construct: expressed in transfected cells; host or cells: HEK293, transiently transfected; membranes
Experimental: as §1, §2, §3, §4

[3] = [3H]flumazenil 0.5 nM, 1 hour at 4° C., means of two determinations, read-out: Ki[nM] hα5
[4] = [3H]flumazenil 1 nM, 1 hour at 4° C., means of two determinations, read-out: Ki[nM] hα1

Compound	Ki [1] [nM]	Ki [1, 4] [nM]	further results
O=C1OCCN1Cc1nc2n(n1)Cc1c(Cl)ncn1-c1ccc(Br)cc1-2 [Example 50]	85.7	–	–
C[C@H]1CN(Cc2nc3n(n2)Cc2c(Cl)ncn2-c2ccc(Br)cc2-3)C(=O)O1 [Example 314, 3-Bromo-10-chloro-6-((5S)-5-methyl-2-oxo-oxazolidin-3-ylmethyl)-9H-imidazo[1,5-a][1,2,4]triazolo[1,5-d][1,4]benzodiazepine]	32.3	–	Ki [2, 3]: 0.7 nM
Cc1ncn2c1Cn1nc(Cn3ccnn3)nc1-c1cc(Br)ccc1-2 [Example 162, 3-Bromo-10-methyl-6-[1,2,3]triazol-1-ylmethyl-9H-imidazo[1,5-a][1,2,4]triazolo[1,5-d][1,4]benzodiazepine hydrochloride (1:1)]	–	152	–
O=C(Cc1nc2n(n1)Cc1c(Cl)ncn1-c1ccc(Br)cc1-2)NCC1CC1 [Example 64, 3-Bromo-10-chloro-6-[(cyclopropylmethyl-carbamoyl)-methyl]-9H-imidazo[1,5-a][1,2,4]triazolo[1,5-d][1,4]benzodiazepine]	68.8	–	Ki [2, 3]: 0.5 nM
Cc1cc(Cc2nc3n(n2)Cc2c(C)ncn2-c2ccc(Cl)cc2-3)on1 [Example 183, 3-Chloro-10-methyl-6-(3-methyl-isoxazol-5-ylmethyl)-9H-imidazo[1,5-a][1,2,4]triazolo[1,5-d][1,4]benzodiazepine hydrochloride (1:1)]	–	279	Ki [2]: 0.6 nM
Cc1ccc(Cc2nc3n(n2)Cc2c(C)ncn2-c2ccc(Br)cc2-3)cn1 [Example 124, 3-Bromo-10-methyl-6-(6-methyl-pyridin-3-ylmethyl)-9H-imidazo[1,5-a][1,2,4]triazolo[1,5-d][1,4]benzodiazepine]	–	219	–
Cc1cc(Cc2nc3n(n2)Cc2c(C)ncn2-c2ccc(Cl)cc2-3)ccn1 [Example 191, 3-Chloro-10-methyl-6-(2-methyl-pyridin-4-ylmethyl)-9H-imidazo[1,5-a][1,2,4]triazolo[1,5-d][1,4]benzodiazepine]	–	266	–
Clc1ccc2c(c1)-c1nc(Cn3nc4ccccc4n3)nn1Cc1c(Cl)ncn1-2 [Example 21, 6-Benzotriazol-2-ylmethyl-3,10-dichloro-9H-imidazo[1,5-a][1,2,4]triazolo[1,5-d][1,4]benzodiazepine]	–	133	–
Cc1ncn2c1Cn1nc(Cn3ccnn3)nc1-c1cc(Cl)ccc1-2 [Example 364, 3-Chloro-10-methyl-6-[1,2,3]triazol-1-ylmethyl-9H-imidazo[1,5-a][1,2,4]triazolo[1,5-d][1,4]benzodiazepine hydrochloride (1:1)]	–	134	–
COc1ccccc1Cc1nc2n(n1)Cc1c(C)ncn1-c1ccc(Br)cc1-2 [Example 168, 3-Bromo-6-(2-methoxy-benzyl)-10-methyl-9H-imidazo[1,5-a][1,2,4]triazolo[1,5-d][1,4]benzodiazepine hydrochloride (1:1)]	63.4	–	–
O=C(Cc1nc2n(n1)Cc1c(Cl)ncn1-c1ccc(Br)cc1-2)NCCO [Example 65, 3-Bromo-10-chloro-6-[(2-hydroxy-ethylcarbamoyl)-methyl]-9H-imidazo[1,5-a][1,2,4]triazolo[1,5-d][1,4]benzodiazepine]	149	–	–
Cc1ncn2c1Cn1nc(Cc3ccn[nH]3)nc1-c1ccccc1-2 [Example 380, 10-Methyl-6-(2H-pyrazol-3-ylmethyl)-9H-imidazo[1,5-a][1,2,4]triazolo[1,5-d][1,4]benzodiazepine hydrochloride (1:1)]	56.6	–	–
Clc1ccc2c(c1)-c1nc(Cn3cc4ccccc4n3)nn1Cc1c(Cl)ncn1-2 [Example 26, 3,10-Dichloro-6-indazol-2-ylmethyl-9H-imidazo[1,5-a][1,2,4]triazolo[1,5-d][1,4]benzodiazepine]	–	111	–
COCC1CN(Cc2nc3n(n2)Cc2c(Cl)ncn2-c2ccc(Br)cc2-3)C(=O)O1 (centres unmarked) [Example 83, 3-Bromo-10-chloro-6-(5-methoxymethyl-2-oxo-oxazolidin-3-ylmethyl)-9H-imidazo[1,5-a][1,2,4]triazolo[1,5-d][1,4]benzodiazepine]	–	113	–
